In PubChem BioAssay (NCI) one finds GI50 and TGI data, which are given here for eleven compounds.

Among the test systems are CCRF-CEM leukemia; COLO 205 colon; EKVX NSCLC; HCC-2998 colon; NCI-H460 lung; OVCAR-3 ovarian; U251 CNS; UACC-257 melanoma; SK-MEL-28 melanoma; NCI-H226 lung.
What all share (assay): NCI anticancer screen, dose series, 48 h

SMILES strings stand for the structures.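 In this assay, cells in 96-well plates receive the compound at five concentrations for 48 hours. Endpoints are linearly interpolated between the surrounding concentrations. Abbreviation: GI50, concentration required for 50% inhibition of growth. TGI is the concentration that stops growth completely.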

Regarding `NC(=NCCCC1(c2ccccc2)CCCC1)Nc1ccc(Cl)cc1`, the GI50 in the test with CCRF-CEM leukemia is 2.18 µM; in the test with COLO 205 colon, 1.69 µM; with EKVX NSCLC, 1.87 µM; in the test with HCC-2998 colon, 1660 nM; in the test with NCI-H460 lung, 1.69 µM; in the test on OVCAR-3 ovarian it was 1.82 µM. For the same compound, the GI50 with U251 CNS is 1.69 µM; in the test with UACC-257 melanoma it was 1.82 µM. In addition, the TGI with CCRF-CEM leukemia came to 6.29 µM; with COLO 205 colon, 3.44 µM; with EKVX NSCLC, 3.57 µM; in the test with HCC-2998 colon, 3.08 µM; with NCI-H460 lung it was 3.42 µM; with OVCAR-3 ovarian, 3.35 µM. Moreover, the figures for the TGI in the test with U251 CNS and with UACC-257 melanoma were 3.11 µM and 3.56 µM, respectively.

Turning to `O=C(NCCc1ccccc1)C(c1ccccc1)(c1ccccc1)c1ccccc1`, the GI50 with CCRF-CEM leukemia is 40 µM; in the test on COLO 205 colon it was 3.26 µM; in the test on EKVX NSCLC, 4.13 µM; in the test on NCI-H460 lung it was 31.5 µM; in the test on OVCAR-3 ovarian it was 5.78 µM; in the test with SK-MEL-28 melanoma, 20.1 µM. For the same compound, in the test with U251 CNS, the GI50 is 2.93 µM. The TGI with CCRF-CEM leukemia was over 100 µM; with COLO 205 colon it was over 100 µM; with EKVX NSCLC, 27.1 µM; in the test on NCI-H460 lung, over 100 µM; in the test with OVCAR-3 ovarian it was over 100 µM; in the test with SK-MEL-28 melanoma, over 100 µM. The compound further displayed a TGI in the test with U251 CNS of 12.4 µM.

For `NC(=O)/C(=C\c1ccncc1)c1cccc2ccccc12`, the TGI in the test on CCRF-CEM leukemia is over 100 µM; in the test with COLO 205 colon, over 100 µM; in the test on EKVX NSCLC, over 100 µM; in the test on NCI-H226 lung, 95.2 µM; in the test with NCI-H460 lung, over 100 µM; in the test with OVCAR-3 ovarian, over 100 µM. For the same compound, the TGI was over 100 µM with SK-MEL-28 melanoma, over 100 µM with U251 CNS and 8.49 µM with UACC-257 melanoma.

`CCN(CC)c1ccc(C2CC(c3cc(OC)c(OC)c(OC)c3)=NN2)cc1` (centres undefined): the GI50 was 0.277 µM with CCRF-CEM leukemia; 0.305 µM in the test on EKVX NSCLC; 1150 nM in the test on HCC-2998 colon; 4.48 µM in the test on NCI-H226 lung; 0.331 µM with NCI-H460 lung; 1.88 µM in the test with OVCAR-3 ovarian. Also, the values for the GI50 in the test on SK-MEL-28 melanoma, with U251 CNS and in the test with UACC-257 melanoma were 23.7 µM, 0.42 µM and 20.2 µM, respectively. Besides, the TGI is 1.16 µM in the test with CCRF-CEM leukemia; over 27 µM with HCC-2998 colon; over 29.7 µM in the test with NCI-H226 lung; 11.8 µM in the test on NCI-H460 lung; over 100 µM in the test on OVCAR-3 ovarian; over 100 µM in the test with SK-MEL-28 melanoma. Moreover, the TGI in the test on U251 CNS and with UACC-257 melanoma was over 100 µM each time.

For `O=C1OC(c2ccccc2)=N/C1=C\c1ccc2ccccc2c1`, the TGI in the test with CCRF-CEM leukemia, with COLO 205 colon, with EKVX NSCLC, with NCI-H460 lung, in the test with OVCAR-3 ovarian and in the test with SK-MEL-28 melanoma was over 100 µM in each case. The TGI in the test with U251 CNS and in the test with UACC-257 melanoma was over 100 µM in each case.

Consider `CC(C)CC1C(=O)N2CCC[C@H]2C2(O)O[C@](NC(=O)C3C=C4c5cccc6[nH]c(Br)c(c56)C[C@H]4N(C)C3)(C(C)C)C(=O)N12` (some centres undefined), for which the GI50 with CCRF-CEM leukemia is 8.53 µM; in the test with EKVX NSCLC, 3.7 µM; in the test with NCI-H226 lung, 11.3 µM; in the test on NCI-H460 lung, 6.6 µM; in the test on OVCAR-3 ovarian it was 6.7 µM; in the test on U251 CNS, 9.4 µM. In the test with UACC-257 melanoma, the GI50 is 16.7 µM. For the same compound, the TGI in the test on CCRF-CEM leukemia, in the test with COLO 205 colon, in the test on EKVX NSCLC, in the test on NCI-H226 lung, in the test on NCI-H460 lung and in the test on OVCAR-3 ovarian was over 100 µM in each case. For the same compound, the TGI in the test with SK-MEL-28 melanoma, in the test with U251 CNS and with UACC-257 melanoma was over 100 µM in each case.

Regarding `C#Cc1c(C)c(/C=C/C(C)=C/C=C/C(C)=C/C(=O)OC)n(C)c1C`, the TGI in the test with CCRF-CEM leukemia, in the test with COLO 205 colon, in the test on EKVX NSCLC, with NCI-H460 lung, in the test on OVCAR-3 ovarian and in the test on SK-MEL-28 melanoma was over 100 µM in each case. The TGI in the test on U251 CNS and in the test on UACC-257 melanoma was over 100 µM each time.

As to `COc1cc2c(c(OC)c1O)-c1ccc(OC)c(=O)cc1[C@@H](NC(=O)C(F)(F)F)CC2`, the TGI in the test on CCRF-CEM leukemia is over 100 µM; with COLO 205 colon, 0.0933 µM; in the test on EKVX NSCLC, over 100 µM; with HCC-2998 colon, 14.1 µM; in the test on OVCAR-3 ovarian, 0.151 µM; with SK-MEL-28 melanoma, over 100 µM. Besides, the TGI in the test with U251 CNS and in the test with UACC-257 melanoma was over 100 µM each time.

In the case of `CN(C)CCCNC(=O)c1ccc2oc3cc4ccccc4c(=O)n3c2c1`, the GI50 in the test on COLO 205 colon was 29.4 µM; in the test with EKVX NSCLC, over 50 µM; in the test with NCI-H460 lung it was 16.6 µM; with OVCAR-3 ovarian it was 8.7 µM; with SK-MEL-28 melanoma it was 19.9 µM; in the test with U251 CNS, 37.5 µM. In the test on UACC-257 melanoma, the GI50 is 20.6 µM. Further, the TGI in the test on COLO 205 colon, in the test on EKVX NSCLC, with NCI-H460 lung, in the test on OVCAR-3 ovarian, in the test with SK-MEL-28 melanoma and in the test with U251 CNS was over 50 µM throughout. The compound also showed a TGI in the test on UACC-257 melanoma of over 50 µM.

On to `NC(=O)C1c2ccccc2C=Cc2ccccc21`, for which the GI50 in the test with COLO 205 colon was over 100 µM; in the test with EKVX NSCLC it was over 100 µM; in the test on HCC-2998 colon, over 100000 nM; in the test with NCI-H226 lung, over 100 µM; in the test on NCI-H460 lung it was over 100 µM; in the test with OVCAR-3 ovarian it was over 100 µM. In addition, the GI50 with SK-MEL-28 melanoma, in the test with U251 CNS and in the test on UACC-257 melanoma was over 100 µM in each case. The TGI with COLO 205 colon, with EKVX NSCLC, in the test on HCC-2998 colon, with NCI-H226 lung, in the test on NCI-H460 lung and in the test with OVCAR-3 ovarian was over 100 µM each time. In addition, the TGI in the test on SK-MEL-28 melanoma, with U251 CNS and in the test with UACC-257 melanoma was over 100 µM each time.

In the case of `NCCCCCCCCn1c2c(c3ccccc3c1=O)C(=O)c1ccccc1-2`, the GI50 in the test with EKVX NSCLC is 17.4 µM; in the test with HCC-2998 colon, 1890 nM; in the test on NCI-H226 lung, 14 µM; in the test with NCI-H460 lung, 3.66 µM; with OVCAR-3 ovarian it was 3.5 µM; with SK-MEL-28 melanoma it was 2.87 µM. The GI50 with U251 CNS is 13.4 µM; in the test on UACC-257 melanoma, 4.97 µM. Further, the TGI in the test on EKVX NSCLC was 44.7 µM; with HCC-2998 colon, 3.75 µM; with NCI-H226 lung it was 34.8 µM; with NCI-H460 lung, 24.8 µM; with OVCAR-3 ovarian it was 11.6 µM; with SK-MEL-28 melanoma it was 8.47 µM. The TGI turned out to be 35.9 µM in the test with U251 CNS and 20.6 µM in the test with UACC-257 melanoma.
